# Numbered stars: 1 amine (or outer) side, 2 acyl side, 3 side chain; on linkers, the order of the positions; unused ones are H or OH. Bridge positions count the residues as written; N and C are the ends. Square brackets hold non-standard residues; d marks the D form. Peptide text beside a SMILES is read from it. * marks the point of attachment. Piperazine(2S-CO,4-Me) = CN1CCN[C@H](C(=O)O)C1; Phe(3-Me) = Cc1cccc(C[C@H](N)C(=O)O)c1; NH(4-Cl-2-F-phenyl) = Fc1cc(Cl)ccc1N*; Pro(4R-Me) = C[C@H]1CN[C@H](C(=O)O)C1; Hyp = O=C(O)[C@@H]1C[C@@H](O)CN1; aThr = C[C@H](O)[C@H](N)C(=O)O; Pip = O=C(O)[C@@H]1CCCCN1; CO = O=C([*:1])[*:2]
# Experiments:
# [1] = Plasma stability assay; format: in vitro ADME, mouse; conditions: mouse, 10 μM
# Method: (§1) The plasma stability property of early drug discovery compounds can influence the in vivo efficacy of the test compounds/drugs. Human and/or mouse plasma degradation is determined using multiple time points to monitor the rate of disappearance of the parent compound during incubation.
# (§2) Sample preparation for plasma stability was modified from Di et al. (2005) Int. J. Pharm. 297(1-2): 110-119. A set of incubation times of 0, 3, 24, and 48 hour were used. DMSO stock solutions of test compounds were prepared at 10 mM concentration. 1.8 μL of each test compound was each added directly to 1.8 mL of human/mouse plasma to get the final concentration of 10 μM. This compound/matrix was mixed and 70 μL was transferred to 8 time points plates (each in triplicate wells). For the Time 0 plate, 210 μL of cold acetonitrile with internal standard (4 μg/mL warfarin) was added to each well and no incubation needed. For other seven time points' plate, the plate was incubated at 37° C. for required time, followed by quenching of the reaction by adding 210 μL of cold acetonitrile with internal standard (4 μg/ml warfarin) to each well. All of the plates were sealed and mixed well at 600 rpm for 10 min and were centrifuged at 4000 rpm for 20 min. The supernatants (120 μL) were transferred to analytical plates for analysis by LCMS. Conditions for Waters ACQUITY-UPLC-MS-UV system was described separately. The plasma stability was evaluated via the half-life from least-squares fit of the multiple time points based on first-order kinetics.
# [2] = Microsomal metabolic stability; format: in vitro ADME, mouse; conditions: CD-1, mouse, pH 7.4
# Method: Compounds were initially prepared by dissolving them into DMSO at a final concentration of 10 mM. NADPH regenerating solutions A and B and mouse liver microsomes (CD-1) were obtained from BD Gentest (Woburn, Mass.). Ninety-six well deep well plates were obtained from MidWest Scientific Inc (Valley Park, Mo.).
# Sample preparation for microsomal stability was modified from methods of Di, L., et al., Int J Pharm. 2005 Jun. 13; 297(1-2):110-9. A set of incubation times of 0, 15, 30, 60, 120, and 240 minutes were used. Mouse liver microsomal solutions were prepared by adding 58 μL of concentrated human or mouse liver microsomes (20 mg/mL protein concentration) to 1.756 mL of 0.1 M potassium phosphate buffer (pH 7.4) and 5 μL of 0.5 M EDTA to make a 0.6381 mg/mL (protein) microsomal solution. NADPH regenerating agent contained 113 μL of NADPH A, 23 μL of NADPH B, and 315 μL of 0.1 M potassium phosphate buffer (pH 7.4). The diluted test compound solutions (2 μL) were each added directly to a 1.79 mL of liver microsomal solution. This solution was mixed and 90 μL was transferred to 6 time points plates (each in triplicate wells). For the time 0 plate, 225 μL of cold acetonitrile with internal standard ([…] warfarin) was added to each well, followed by addition of NADPH regenerating agent (22.5 μL) and no incubation. For other five time points' plate, NADPH regenerating agent (22.5 μL) was added to each well to initiate the reaction. The plates were incubated at 37° C. for the required time, followed by quenching of the reaction by adding 225 μL of cold acetonitrile with internal standard (4 μg/ml warfarin). All of the plates were sealed and mixed well at 600 rpm for 10 minutes followed by centrifugation at 4000 rpm for 20 minutes. The supernatants (120 μL) were transferred to analytical plates for analysis by LCMS. LCMS conditions were described in the materials and instrumentation section above. The metabolic stability is evaluated via the half-life from least-squares fit of the multiple time points based on first-order kinetics.
# [3] = Plasma stability assay; format: in vitro ADME, human; conditions: human, 10 μM
# Method: as §1, §2
# [4] = Solubility determination; format: physicochemical; conditions: for solubility kinetic at 10 min: 22 °C, aqueous buffer, kinetic from dmso stock
# Method: Test compounds were synthesized and supplied by the Department of Chemical Biology and Therapeutics at St. Jude Children's Research Hospital (Memphis, Tenn.). LC-MS chromasolv grade acetonitrile (ACN) was purchased from Fisher Scientific (Loughborough, UK). LC-MS chromasolv grade formic acid was obtained from Sigma-Aldrich (St. Louis, Mo.). Milli-Q water as an ultrapure laboratory grade water was used in aqueous mobile phase.
# Chromatographic separation was performed on an Acquity UPLC BEH C18 1.7 μm, 2.1×50 mm column (Waters Corporation, Milford, Mass.) using an Acquity ultra performance liquid chromatography system. The total flow rate was 0.9 mL/min. The sample injection volume was 10 μL. The UPLC column was maintained at 60° C. and the gradient program started at 90% A (0.1% formic acid in MilliQ H2O), changed to 70% A over 0.2 min, to 95% B (0.1% formic acid in ACN) over 1.4 minutes, held for 0.35 minutes, then to 90% A over 0.05 minutes.
# Mass data was acquired with an Acquity SQD Mass Spectrometer. The mass spectrometer was operated in positive-ion mode with electrospray ionization. The conditions were as follows: capillary voltage 3.5 kV, cone voltage 30 V, source temperature 150° C., desolvation temperature 350° C., desolvation gas 500 L/hr, cone gas 25 L/hr. Data were acquired using Masslynx v. 4.1 and analyzed using the Quanlynx software suite. A full scan range from m/z=100-1000 in 0.2 s was used to acquire MS data. Both UV and Single ion recording mass spectrometry were used to determine the quantification of the samples.
# Stock solutions were prepared by dissolving compounds into DMSO to yield a concentration of 10 mM. Stock solutions were stored at room temperature.
# Calibration standards were made by adding stock solutions to DMSO for final concentrations of compounds at concentration of 100, 25, 6.25, 1.563, 0.391 and 0.098 μM.
# Solubility test samples were made by adding stock solutions to 200 μL, of DPBS for final concentrations of compounds at 100 μM in a 96-well analytical plate (300 μL, maximum volume in each well). Samples were tested in triplicates. The plate was sealed, shaken at 600 rpm for 10 minutes, and then was centrifuged at 4000 rpm for 20 min at 22° C. 100 μL, of the supernatant was transferred to a new analytical 96-well plate and 10 μL, was injected onto the LCMS system.
# Two calibration curves for solubility test samples were analyzed during the quantitation process. The linear regression of test compound peak areas was weighted by 1/x^2. […] Coefficient of determination (R^2) was used to evaluate the linearity of each calibration curve.
structure (smiles),measurement,setting,value
"Cc1cccc(C[C@H](NC(=O)Nc2ccc(Cl)cc2F)C(=O)N[C@@H]2C(=O)N3C[C@H](O)C[C@H]3C(=O)N3CCCC[C@H]3C(=O)N[C@@H](C)C(=O)N3C[C@H](C)C[C@H]3C(=O)O[C@H]2C)c1 [Compound 6, (S)-2-(3-(4-CHLORO-2-FLUOROPHENYL)UREIDO)-N-((2R,6S,8AS,14AS,16R,20S,21S,23AS)-16-HYDROXY-2,6,21-TRIMETHYL-5,8,14,19,23-PENTAOXOOCTADECAHYDRO-1H,5H,14H,19H-PYRIDO[2,1-I]DIPYRROLO[2,1-C:2′,1′-L][1]OXA[4,7,10,13]TETRAAZACYCLOHEXADECIN-20-YL)-3-(M-TOLYL)PROPANAMIDE] ({NH(4-Cl-2-F-phenyl)-CO}-[Phe(3-Me)][aThr][Hyp][Pip]A[Pro(4R-Me)]; ester 2-C)",Mouse,[1],>50 h
same,Mouse,[2],4.61 ± 1.2 h
same,Human,[3],>50 h
same,μsol (μM),[4],13.9 ± 1.4 µM
same,solubility kinetic at 10 min,[4],12.6 ± 0.3 µM
"Cc1cccc(C[C@H](NC(=O)Nc2ccc(Cl)cc2F)C(=O)N[C@H]2COC(=O)[C@@H]3C[C@@H](C)CN3C(=O)[C@H](C)NC(=O)[C@@H]3CCCCN3C(=O)[C@@H]3CCCN3C2=O)c1 [Compound 8, (S)-2-(3-(4-CHLORO-2-FLUOROPHENYL)UREIDO)-N-((2R,6S,8AS,14AS,20S,23AS)-2,6-DIMETHYL-5,8,14,19,23-PENTAOXOOCTADECAHYDRO-1H,5H,14H,19H-PYRIDO[2,1-I]DIPYRROLO[2,1-C:2′,1′-L][1]OXA[4,7,10,13]TETRAAZACYCLOHEXADECIN-20-YL)-3-(M-TOLYL)PROPANAMIDE]",Mouse,[1],>50 h
same,Mouse,[2],1.22 ± 0.13 h
same,Human,[3],34.37 h
same,μsol (μM),[4],8.8 ± 0.7 µM
same,solubility kinetic at 10 min,[4],2.79 ± 0.5 µM
Cc1cccc(C[C@H](NC(=O)Nc2ccc(Cl)cc2F)C(=O)N[C@H]2COC(=O)[C@@H]3C[C@@H](C)CN3C(=O)[C@H](C)NC(=O)[C@@H]3CCCCN3C(=O)[C@@H]3C[C@@H](O)CN3C2=O)c1 [Compound 10],Mouse,[1],>50 h
same,Mouse,[2],0.7 ± 0.07 h
same,Human,[3],58.50 h
same,μsol (μM),[4],26.0 ± 0.9 µM
same,solubility kinetic at 10 min,[4],27.04 ± 0.25 µM
"Cc1cccc(C[C@H](NC(=O)Nc2ccc(Cl)cc2F)C(=O)N[C@@H]2C(=O)N3CCC[C@H]3C(=O)N3CCN(C)C[C@H]3C(=O)N[C@@H](C)C(=O)N3C[C@H](C)C[C@H]3C(=O)O[C@H]2C)c1 [Compound 11, (S)-2-(3-(4-CHLORO-2-FLUOROPHENYL)UREIDO)-N-((6AS,12S,13S,15AS,17R,21S,23AS)-2,13,17,21-TETRAMETHYL-6,11,15,20,23-PENTAOXOOCTADECAHYDRO-2H,6H,11H,15H-PYRAZINO[2,1-I]DIPYRROLO[2,1-C:2′,1′-L][1]OXA[4,7,10,13]TETRAAZACYCLOHEXADECIN-12-YL)-3-(M-TOLYL)PROPANAMIDE] ({NH(4-Cl-2-F-phenyl)-CO}-[Phe(3-Me)][aThr]P[Piperazine(2S-CO,4-Me)]A[Pro(4R-Me)]; ester 2-C)",Mouse,[1],36.62 h
same,Mouse,[2],0.67 ± 0.07 h
same,Human,[3],44.21 h
same,μsol (μM),[4],32.2 ± 1.4 µM
same,solubility kinetic at 10 min,[4],43.2 ± 3.14 µM
"Cc1cccc(C[C@H](NC(=O)Nc2ccc(Cl)cc2F)C(=O)N[C@H]2COC(=O)[C@@H]3C[C@@H](C)CN3C(=O)[C@H](C)NC(=O)[C@@H]3CCCCN3C(=O)[C@@H]3C[C@H](N)CN3C2=O)c1 [Compound 12, (S)—N-((2R,6S,8AS,14AS,16S,20S,23AS)-16-AMINO-2,6-DIMETHYL-5,8,14,19,23-PENTAOXOOCTADECAHYDRO-1H,5H,14H,19H-PYRIDO[2,1-I]DIPYRROLO[2,1-C:2′,1′-L][1]OXA[4,7,10,13]TETRAAZACYCLOHEXADECIN-20-YL)-2-(3-(4-CHLORO-2-FLUOROPHENYL)UREIDO)-3-(M-TOLYL)PROPANAMIDE]",Mouse,[1],18.63 h
same,Mouse,[2],2.34 ± 0.44 h
same,Human,[3],38.58 h
same,μsol (μM),[4],24.7 ± 3.7 µM
same,solubility kinetic at 10 min,[4],37.5 ± 13 µM
"Cc1cccc(C[C@H](NC(=O)Nc2ccc(Cl)cc2F)C(=O)N[C@H]2COC(=O)[C@@H]3C[C@@H](C)CN3C(=O)[C@H](C)NC(=O)[C@@H]3CN(C)CCN3C(=O)[C@@H]3CCCN3C2=O)c1 [Compound 13, (S)-2-(3-(4-CHLORO-2-FLUOROPHENYL)UREIDO)-3-(M-TOLYL)-N-((6AS,12S,15AS,17R,21S,23AS)-2,17,21-TRIMETHYL-6,11,15,20,23-PENTAOXOOCTADECAHYDRO-2H,6H,11H,15H-PYRAZINO[2,1-I]DIPYRROLO[2,1-C:2′,1′-L][1]OXA[4,7,10,13]TETRAAZACYCLOHEXADECIN-12-YL)PROPANAMIDE] ({NH(4-Cl-2-F-phenyl)-CO}-[Phe(3-Me)]SP[Piperazine(2S-CO,4-Me)]A[Pro(4R-Me)]; ester 2-C)",Mouse,[1],10.74 ± 0.8 h
same,Mouse,[2],0.49 ± 0.03 h
same,Human,[3],67.3 ± 13.7 h
same,μsol (μM),[4],38.3 ± 2.2 µM
same,solubility kinetic at 10 min,[4],40.1 ± 4.6 µM
